Consider 18 molecules from patent US12564638B2 (SHANGHAITECH UNIVERSITY, priority 2019, dated 2026).

pIC50: −log10 of the molar value.

The test system of the first assay is HCC827 cells (EGFR Exon19 del, non-small cell lung cancer cells). The assay can be described thus: Cell viability assay (WST/CCK8), HCC827 cells. The format is cell-based. The settings on record: Homo sapiens, HCC827, 72 h, HCC827 (Exon19 Del), 72 hours, WST (CCK8); read-out: IC50 (half inhibitory concentration). The source says: The cell lines with abnormal EGFR expression used are as follows: • HCC827 cells (EGFR Exon19 del, non-small cell lung cancer cells); • PC9 cells (EGFR Exon 19 del, non-small cell lung cancer cells); • PC9BracA1 (EGFR Exon 19 del+T790M, non-small cell lung cancer cells) • H1975 (EGFR Exon T790M+L858R mutation, non-small cell lung cancer cell line) • BT474 cells (HER2 positive breast cancer cells)
All of the half inhibitory concentrations (IC50) of these compounds of the present invention were determined with WST reagent from Fuyuan Biotec Company. The specific experiment procedures are as follows: Cancer cells were planted in 96-well-plate at the density of 3 000 cells per well with 100 μL RPMI1640 completed culture medium. In the next day, compounds with indicated concentrations were added to the cells, DMSO was used as the negative control and the EGFR TKIs were used to treat cells as the positive groups. After 72 hours drug treatment, cell viability was measured by using the WST reagent following the instructions.
The cells were treated with the gradient concentration of these compounds (the maximum concentration: 10 μM; 3-fold dilution ratio, 10 concentration gradients) for 72 hours and then incubated with the WST (CCK8) reagent to determine the cell viability.
For the molecule `COc1cc2ncnc(Nc3ccc(F)c(Cl)c3)c2cc1NC(=O)/C=C/CN1CCN(C(=O)CCCCC(=O)N[C@H](C(=O)N2C[C@H](O)C[C@H]2C(=O)NCc2ccc(-c3scnc3C)cc2)C(C)(C)C)CC1` [SIAIS249042, (2S,4R)-1-((S)-2-(6-(4-((E)-4-((4-((3-chloro-4-fluorophenyl)amino)-7-methoxyquinazolin-6-yl)amino)-4-oxobut-2-en-1-yl)piperazin-1-yl)-6-oxohexanamido)-3,3-dimethylbutanoyl)-4-hydroxy-N-(4-(4-methylthiazol-5-yl)benzyl)pyrrolidine-2-carboxamide], the pIC50 was 7.50.
With `COc1cc2ncnc(Nc3ccc(F)c(Cl)c3)c2cc1NC(=O)/C=C/CN1CCN(C(=O)CCOCCOCCOCCNc2cccc3c2C(=O)N(C2CCC(=O)NC2=O)C3=O)CC1` (stereo not drawn) [SIAIS249047, (E)-N-(4-((3-chloro-4-fluorophenyl)amino)-7-methoxyquinazolin-6-yl)-4-(4-(3-(2-(2-(2-((2-(2,6-dioxopiperidin-3-yl)-1,3-dioxoisoindolin-4-yl)amino)ethoxy)ethoxy)ethoxy)propanoyl)piperazin-1-yl)but-2-enamide], the pIC50 is 7.63.
Consider `COc1cc2ncnc(Nc3ccc(F)c(Cl)c3)c2cc1NC(=O)/C=C/CN1CCN(C(=O)COCCOCCOCCOCCSc2cccc3c2CN(C2CCC(=O)NC2=O)C3=O)CC1` (stereo not drawn) [SIAIS262003, (E)-N-(4-((3-chloro-4-fluorophenyl)amino)-7-methoxyquinazolin-6-yl)-4-(4-(14-((2-(2,6-dioxopiperidin-3-yl)-1-oxoisoindolin-4-yl)thio)-3,6,9,12-tetraoxatetradecan-1-oyl)piperazin-1-yl)but-2-enamide], for which the pIC50 was 6.98.
Same read-out and setting: the figure for `COc1cc2ncnc(Nc3ccc(F)c(Cl)c3)c2cc1NC(=O)/C=C/CN1CCN(C(=O)COCCOCCOCCOCCOCCSc2cccc3c2C(=O)N(C2CCC(=O)NC2=O)C3=O)CC1` (stereo not drawn) [SIAIS262008, (E)-N-(4-((3-chloro-4-fluorophenyl)amino)-7-methoxyquinazolin-6-yl)-4-(4-(17-((2-(2,6-dioxopiperidin-3-yl)-1,3-dioxoisoindolin-4-yl)thio)-3,6,9,12,15-pentaoxaheptadecanoyl)piperazin-1-yl)but-2-enamide] is 7.33; for `COc1cc2ncnc(Nc3ccc(F)c(Cl)c3)c2cc1NC(=O)/C=C/CN1CCC(N2CCN(CCCCCNc3cccc4c3C(=O)N(C3CCC(=O)NC3=O)C4=O)CC2)CC1` (stereo not drawn) [SIAIS262071, (E)-N-(4-((3-chloro-4-fluorophenyl)amino)-7-methoxyquinazolin-6-yl)-4-(4-(4-(5-((2-(2,6-dioxopiperidin-3-yl)-1,3-dioxoisoindolin-4-yl)amino)pentyl)piperazin-1-yl)piperidin-1-yl)but-2-enamide] it is 8.23; for `COc1cc2ncnc(Nc3ccc(F)c(Cl)c3)c2cc1NC(=O)/C=C/CN1CCC(N2CCN(CCCCCCNc3cccc4c3C(=O)N(C3CCC(=O)NC3=O)C4=O)CC2)CC1` (stereo not drawn) [SIAIS262072, (E)-N-(4-((3-chloro-4-fluorophenyl)amino)-7-methoxyquinazolin-6-yl)-4-(4-(4-(6-((2-(2,6-dioxopiperidin-3-yl)-1,3-dioxoisoindolin-4-yl)amino)hexyl)piperazin-1-yl)piperidin-1-yl)but-2-enamide] it is 7.77.

The assay is the same for the next values; noted with them: Homo sapiens, HCC827, 72 h, Table 3, poziotinib-based compounds; HCC827 (Exon19 Del); 72 hours; WST (CCK8); read-out: IC50 (half inhibitory concentration).
On to `COc1cc2ncnc(Nc3ccc(Cl)c(Cl)c3F)c2cc1OC1CCN(C(=O)CCOCCOCCOCCNc2cccc3c2C(=O)N(C2CCC(=O)NC2=O)C3=O)CC1` (stereo not drawn) [SIAIS249031, 4-((2-(2-(2-(3-(4-((4-((3,4-dichloro-2-fluorophenyl)amino)-7-methoxyquinazolin-6-yl)oxy)piperidin-1-yl)-3-oxopropoxy)ethoxy)ethoxy)ethyl)amino)-2-(2,6-dioxopiperidin-3-yl)isoindoline-1,3-dione], for which the pIC50 was 7.55.
Consider `COc1cc2ncnc(Nc3ccc(Cl)c(Cl)c3F)c2cc1OC1CCN(C(=O)CCOCCOCCOCCOCCNc2cccc3c2C(=O)N(C2CCC(=O)NC2=O)C3=O)CC1` (stereo not drawn) [SIAIS249032, 4-((15-(4-((4-((3,4-dichloro-2-fluorophenyl)amino)-7-methoxyquinazolin-6-yl)oxy)piperidin-1-yl)-15-oxo-3,6,9,12-tetraoxapentadecyl)amino)-2-(2,6-dioxopiperidin-3-yl)isoindoline-1,3-dione], for which the pIC50 is 7.96.
On the same count and under the same terms, the figure for `COc1cc2ncnc(Nc3ccc(Cl)c(Cl)c3F)c2cc1OC1CCN(C(=O)CCOCCOCCOCCOCCOCCNc2cccc3c2C(=O)N(C2CCC(=O)NC2=O)C3=O)CC1` (stereo not drawn) [SIAIS249033, 4-((18-(4-((4-((3,4-dichloro-2-fluorophenyl)amino)-7-methoxyquinazolin-6-yl)oxy)piperidin-1-yl)-18-oxo-3,6,9,12,15-pentaoxaoctadecyl)amino)-2-(2,6-dioxopiperidin-3-yl)isoindoline-1,3-dione] is 7.89.

The assay is the same for the next values; noted with them: Homo sapiens, HCC827, 72 h, Table 4, gefitinib and sapitinib-based compounds; HCC827 (Exon19 Del); 72 hours; WST; read-out: IC50 (half inhibitory concentration).
In the case of `COc1cc2ncnc(Nc3ccc(F)c(Cl)c3)c2cc1OCCCN1CCC(N2CCNCC2)CC1` [SIAIS262080, N-(3-chloro-4-fluorophenyl)-7-methoxy-6-(3-(4-(piperazin-1-yl)piperidin-1-yl)propoxy)quinazolin-4-amine], the pIC50 was 7.39.
The same measure, in the same setting: in the case of `COc1cc2ncnc(Nc3ccc(F)c(Cl)c3)c2cc1OCCCN1CCC(N2CCN(C(=O)CSc3cccc4c3CN(C3CCC(=O)NC3=O)C4=O)CC2)CC1` (stereo not drawn) [SIAIS262085, 3-(4-((2-(4-(1-(3-((4-((3-chloro-4-fluorophenyl)amino)-7-methoxyquinazolin-6-yl)oxy)propyl)piperidin-4-yl)piperazin-1-yl)-2-oxoethyl)thio)-1-oxoisoindolin-2-yl)piperidine-2,6-dione] it was 6.84; in that of `COc1cc2ncnc(Nc3ccc(F)c(Cl)c3)c2cc1OCCCN1CCC(N2CCN(C(=O)CCCCSc3cccc4c3CN(C3CCC(=O)NC3=O)C4=O)CC2)CC1` (stereo not drawn) [SIAIS262086, 3-(4-((5-(4-(1-(3-((4-((3-chloro-4-fluorophenyl)amino)-7-methoxyquinazolin-6-yl)oxy)propyl)piperidin-4-yl)piperazin-1-yl)-5-oxopentyl)thio)-1-oxoisoindolin-2-yl)piperidine-2,6-dione], 7.23.
As for `COc1cc2ncnc(Nc3ccc(F)c(Cl)c3)c2cc1OCCCN1CCC(N2CCN(C(=O)CCCCCSc3cccc4c3CN(C3CCC(=O)NC3=O)C4=O)CC2)CC1` (stereo not drawn) [SIAIS262087, 3-(4-((6-(4-(1-(3-((4-((3-chloro-4-fluorophenyl)amino)-7-methoxyquinazolin-6-yl)oxy)propyl)piperidin-4-yl)piperazin-1-yl)-6-oxohexyl)thio)-1-oxoisoindolin-2-yl)piperidine-2,6-dione], the pIC50 was 7.51.
As for `COc1cc2ncnc(Nc3ccc(F)c(Cl)c3)c2cc1OCCCN1CCC(N2CCN(CCCC#Cc3cccc4c3CN(C3CCC(=O)NC3=O)C4=O)CC2)CC1` (stereo not drawn) [SIAIS262089, 3-(4-(5-(4-(1-(3-((4-((3-chloro-4-fluorophenyl)amino)-7-methoxyquinazolin-6-yl)oxy)propyl)piperidin-4-yl)piperazin-1-yl)pent-1-yn-1-yl)-1-oxoisoindolin-2-yl)piperidine-2,6-dione], the pIC50 is 6.99.
Take `COc1cc2ncnc(Nc3ccc(F)c(Cl)c3)c2cc1OCCCN1CCC(N2CCN(CCCCC#Cc3cccc4c3CN(C3CCC(=O)NC3=O)C4=O)CC2)CC1` (stereo not drawn) [SIAIS262090, 3-(4-(6-(4-(1-(3-((4-((3-chloro-4-fluorophenyl)amino)-7-methoxyquinazolin-6-yl)oxy)propyl)piperidin-4-yl)piperazin-1-yl)hex-1-yn-1-yl)-1-oxoisoindolin-2-yl)piperidine-2,6-dione]: the pIC50 was 7.33.
As to `COc1cc2ncnc(Nc3ccc(F)c(Cl)c3)c2cc1OC1CCN(CC(=O)NCCSc2cccc3c2CN(C2CCC(=O)NC2=O)C3=O)CC1` (stereo not drawn) [SIAIS293047, 2-(4-((4-((3-chloro-4-fluorophenyl)amino)-7-methoxyquinazolin-6-yl)oxy)piperidin-1-yl)-N-(2-((2-(2,6-dioxopiperidin-3-yl)-1-oxoisoindolin-4-yl)thio)ethyl)acetamide], the pIC50 is 7.92.
For `COc1cc2ncnc(Nc3ccc(F)c(Cl)c3)c2cc1OC1CCN(CC(=O)NCCCSc2cccc3c2CN(C2CCC(=O)NC2=O)C3=O)CC1` (stereo not drawn) [SIAIS293048, 2-(4-((4-((3-chloro-4-fluorophenyl)amino)-7-methoxyquinazolin-6-yl)oxy)piperidin-1-yl)-N-(3-((2-(2,6-dioxopiperidin-3-yl)-1-oxoisoindolin-4-yl)thio)propyl)acetamide], the pIC50 was 7.64.
For the molecule `COc1cc2ncnc(Nc3ccc(F)c(Cl)c3)c2cc1OC1CCN(CC(=O)NCCCCSc2cccc3c2CN(C2CCC(=O)NC2=O)C3=O)CC1` (stereo not drawn) [SIAIS293049, 2-(4-((4-((3-chloro-4-fluorophenyl)amino)-7-methoxyquinazolin-6-yl)oxy)piperidin-1-yl)-N-(4-((2-(2,6-dioxopiperidin-3-yl)-1-oxoisoindolin-4-yl)thio)butyl)acetamide], the pIC50 was 8.55.
